Data reported in the NIST ThermoML archive (doi:10.1016/j.jct.2005.09.003).

Columns and labels:
[1] = Liquid
[2] = refractive index (Na D-line) (dimensionless); settings: 298.15 K; 101.33 kPa; Liquid; Standard Abbe refractometry

CCCCCCCl [1-chlorohexane]
mass density [kg/m3], [1]
Settings | 298.15 K | 308.15 K | 318.15 K | 328.15 K
100 kPa | 873.42 | 863.99 | 854.58 | 845.18
2130 kPa | 874.73 | 865.56 | 856.27 | 847.12
4150 kPa | 876.45 | 867.35 | 858.19 | 849.17
6180 kPa | 878.31 | 869.15 | 860.06 | 851.16
8210 kPa | 879.79 | 870.9 | 861.91 | 853.13
10230 kPa | 881.44 | 872.61 | 863.73 | 855.02
11250 kPa | 882.22 | 873.47 | 864.62 | 855.98
12260 kPa | 883.01 | 874.3 | 865.5 | 856.91
14290 kPa | 884.61 | 875.96 | 867.28 | 858.76
16310 kPa | 886.16 | 877.59 | 869 | 860.59
18340 kPa | 887.68 | 879.2 | 870.66 | 862.35
20370 kPa | 889.18 | 880.78 | 872.33 | 864.12
22390 kPa | 890.65 | 882.35 | 873.95 | 865.82
24420 kPa | 892.14 | 883.86 | 875.54 | 867.51
26450 kPa | 893.54 | 885.35 | 877.12 | 869.18
28470 kPa | 894.96 | 886.84 | 878.67 | 870.8
29490 kPa | 895.65 | 887.56 | 879.43 | 871.6
30500 kPa | 896.32 | 888.21 | 880.19 | 872.4
32530 kPa | 897.71 | 889.73 | 881.7 | 873.95
34550 kPa | 899.05 | 891.14 | 883.17 | 875.49
36580 kPa | 900.38 | 892.52 | 884.63 | 877.05
38600 kPa | 901.69 | 893.9 | 886.04 | 878.53
39620 kPa | 902.33 | 894.55 | 886.76 | 879.31

Settings | refractive index
[2] | 1.4172
